{"source": "patent US12214059B2", "about": "“Cleavable radioligands for targeting cell surface receptors and uses thereof” (Full-Life Te[…] Limited, priority 2021, dated 2025)", "key": {"PSMA": {"molecular_target": "T1, PSMA (Homo sapiens, UniProt Q04609)", "T1 construct": "host or cells: LNCaP cells", "T1 sequence (Q04609 whole entry)": "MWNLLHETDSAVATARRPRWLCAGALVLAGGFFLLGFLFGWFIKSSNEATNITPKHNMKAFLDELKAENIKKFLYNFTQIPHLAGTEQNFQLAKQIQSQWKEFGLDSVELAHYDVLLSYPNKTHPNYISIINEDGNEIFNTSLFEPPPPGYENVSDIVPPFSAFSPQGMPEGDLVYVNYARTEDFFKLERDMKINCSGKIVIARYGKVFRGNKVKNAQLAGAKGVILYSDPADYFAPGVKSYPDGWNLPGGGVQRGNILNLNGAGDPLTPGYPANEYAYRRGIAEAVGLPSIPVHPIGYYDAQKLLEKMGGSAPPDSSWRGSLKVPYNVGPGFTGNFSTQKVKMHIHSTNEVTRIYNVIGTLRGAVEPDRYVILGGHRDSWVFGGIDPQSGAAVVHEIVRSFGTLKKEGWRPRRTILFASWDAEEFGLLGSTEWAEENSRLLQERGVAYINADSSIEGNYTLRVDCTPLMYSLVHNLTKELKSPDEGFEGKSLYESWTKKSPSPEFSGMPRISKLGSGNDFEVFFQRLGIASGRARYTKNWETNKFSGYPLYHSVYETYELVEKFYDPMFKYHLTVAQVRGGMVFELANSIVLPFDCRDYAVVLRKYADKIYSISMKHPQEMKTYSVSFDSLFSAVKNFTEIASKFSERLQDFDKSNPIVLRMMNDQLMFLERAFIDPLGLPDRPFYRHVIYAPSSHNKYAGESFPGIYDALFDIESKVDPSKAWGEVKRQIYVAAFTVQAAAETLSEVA", "experiment": "Cell-based radioligand competitive binding assay (^125I-C-8, LNCaP cells)", "conditions": "for Relative Binding Affinity: C-1 = 1.00", "description": "The culture medium was replaced with fresh medium every 2-3 days. Experiments were performed with cells at 70-80% confluence.\nThe final volume in each well was maintained at 200 μL and insufficient volume was adjusted by the binding buffer."}, "[1]": {"experiment": "Ex-vivo mouse plasma stability study of ^177Lu-labeled compounds", "type": "in vitro ADME", "conditions": "37° C.", "description": "Plasma Stability Study (Mouse and Human)\nMouse blood was collected via cardiac puncture of the left ventricle. Blood was placed into heparin-coated microfuge tubes and then centrifuged at 3500 rpm for 10 min to separate plasma for stability studies. Human plasma was purchased directly.\nAt each time point (0, 1, 2, 4, 24, 48 72 h), an aliquot of 25 μL sample was taken and mixed with 100 μL methanol containing 1% formic acid, vertex for 30-60 sec, then centrifuged at 20000 rpm for 10 min. 100 μL supernatant was collected and diluted with 40 μL H2O. 100 μL of the resulting mixture was injected to radio-HPLC for stability assessment, as shown examples FIG. 2 and FIG. 3. The best-fit T½ value of test compounds were calculated by fitting the data with linear or non-linear regression using GraphPad Prism 8.0.1."}, "LNCap tumor-bearing mice": {"system": "LNCap tumor-bearing mice", "experiment": "Biodistribution study in CB-17 SCID mice bearing LNCap tumor", "type": "in vivo, mouse", "conditions": "LNCap tumor-bearing mice", "description": "Biodistribution Study in CB-17 SCID Mice Bearing LNCap Tumor\nAll animal care and experimental procedure were performed by following the animal protocols approved by the ethics committee of China Institute of Radiation Protection. The CB-17 SCID mice (Charles River, Beijing) were utilized for these studies. […] These mice received subcutaneous rear flank injections of approximately 4×10^6 LNCap cells suspended in 200 μL of phosphate-buffered saline (PBS) and Matrigel (Corning) (1/1)."}, "[2]": {"system": "PC-3 PIP tumor-bearing mice", "experiment": "Biodistribution study in SCID mice bearing PC3-PIP tumor", "type": "in vivo, mouse", "conditions": "PC3 PIP tumor-bearing mice", "description": "Biodistribution Study in SCID Mice Bearing PC3-PIP Tumor\nSevere combined immunodeficient (ICR-SCID) mice from the Institute of Cancer Research (Taconic Farms, Germantown, NY) were utilized for these studies. […] These mice received bilateral subcutaneous rear flank injections of approximately 10×10^6 PC-3 PIP cells (prostate cancer cell PC-3 stably expressing human PSMA) suspended in 100 μL of 0.9% NaCl. […] The tissues and organs were weighed, counted in a PerkinElmer Wizard 3 automatic γ counter, and the percent injected dose (% ID) and % ID/g of each organ or tissue were calculated, as shown in Tables 5-24 and FIG. 1 and FIG. 2."}}, "data": [{"smiles": "O=C(O)CC[C@H](NC(=O)N[C@@H](CCCCNC(=O)[C@H](Cc1ccc2ccccc2c1)NC(=O)C1CCC(CNC(=O)CN2CCN(CC(=O)O)CCN(CC(=O)O)CCN(CC(=O)O)CC2)CC1)C(=O)O)C(=O)O", "note": "(stereo partly drawn) [Example C-1, (((S)-1-carboxy-5-((S)-3-(naphthalen-2-yl)-2-((1r,4S)-4-((2-(4,7,10-tris(carboxymethyl)-1,4,7,10-tetraazacyclododecan-1-yl)acetamido)methyl)cyclohexane-1-carboxamido)propanamido)pentyl)carbamoyl)-L-glutamic acid tetra(trifluoroacetic acid), reference compound]", "values": [{"measurement": "Relative Binding Affinity", "setting": "PSMA; based on the mean value of the IC50 number", "value": 1.00}, {"measurement": "LogIC50 Mean", "setting": "PSMA; log10 of IC50 (negative values), nonlin fit, LNCaP cells, ^125I-C-8 radioligand", "value": "−8.544"}, {"measurement": "IC50", "setting": "PSMA; nonlin fit, LNCaP cells, ^125I-C-8 radioligand, scientific notation, unit inferred", "value": 2.86, "unit": "nM"}, {"measurement": "Relative Binding Affinity", "setting": "PSMA; relative", "value": 1.00}, {"measurement": "% Remaining 0 min", "setting": "[1]; 0 min", "value": 100, "unit": "%"}, {"measurement": "% Remaining 1 h", "setting": "[1]; 1 h", "value": 100, "unit": "%"}, {"measurement": "% Remaining 4 h", "setting": "[1]; 4 h", "value": 100, "unit": "%"}, {"measurement": "% Remaining 24 h", "setting": "[1]; 24 h", "value": 100, "unit": "%"}, {"measurement": "% Remaining 48 h", "setting": "[1]; 48 h", "value": 100, "unit": "%"}, {"measurement": "% Remaining 72 h", "setting": "[1]; 72 h", "value": 100, "unit": "%"}, {"measurement": "T½ (h)", "setting": "[1]; * = value obtained using nonlinear regression", "value": "Stable"}, {"measurement": "T/K at 4 h (tumor uptake/kidney uptake)", "setting": "LNCap tumor-bearing mice; 4 h", "value": 2.52}, {"measurement": "T at 24 h (tumor uptake)", "setting": "LNCap tumor-bearing mice; 24 h", "value": 10.0}, {"measurement": "T/K at 24 h (tumor uptake/kidney uptake)", "setting": "LNCap tumor-bearing mice; 24 h", "value": 7.04}, {"measurement": "T at 96 h (tumor uptake)", "setting": "LNCap tumor-bearing mice; 96 h", "value": 10.1}, {"measurement": "T/K at 96 h (tumor uptake/kidney uptake), *value at 72 h", "setting": "LNCap tumor-bearing mice; value at 72 h", "value": "15.5*"}, {"measurement": "T/K at 4 h (tumor uptake/kidney uptake)", "setting": "[2]; 4 h", "value": 7.0}, {"measurement": "T at 24 h (tumor uptake)", "setting": "[2]; 24 h", "value": 10.4}, {"measurement": "T/K at 24 h (tumor uptake/kidney uptake)", "setting": "[2]; 24 h", "value": 57}, {"measurement": "T at 96 h (tumor uptake)", "setting": "[2]; 96 h", "value": 7.3}, {"measurement": "T/K at 96 h (tumor uptake/kidney uptake)", "setting": "[2]; 96 h", "value": 182}]}]}
